PMC10694292, “Increased sinusoidal export of drug glucuronides is a compensative mechanism in liver cirrhosis of mice” (Frontiers in Pharmacology, 2023)
≈ marks a conversion by molar mass, not a printed value. Like-named read-outs stand apart in the source and are kept apart here.

Columns and labels:
[1] = mouse, in vivo
[2] = rats; ref Fukuda et al., 2008; cited from earlier work
[3] = tested on: OATP1B1; design: method as in Nakai et al., 2001; settings: human, experimental; ref Nakai et al., 2001; cited from earlier work
[4] = rat; ref Fukuda et al., 2008; cited from earlier work
[5] = humans; ref Everett et al., 1991; cited from earlier work
[6] = ref Thiel et al., 2015, cited from earlier work
[7] = cited from earlier work

Structure (SMILES): CC[C@H](C)C(=O)O[C@H]1C[C@H](O)C=C2C=C[C@H](C)[C@H](CC[C@@H](O)C[C@@H](O)CC(=O)O)[C@H]21 [Pravastatin, pravastatin]
- Mean fraction of dose excreted to urine [1]: Less than 1%
- Fraction of dose in urine (24 h), cirrhotic vs control mice ([1]; iv): increased significantly
- Dose found in bile [2]: about 60%
- Km [3]: 11.5 µM
- Fraction unbound [4]: 0.672
- Dose recovered unchanged from urine [5]: about 41%
- Vmax ([6]; Oatp1b2, optimized for mice with measured human Km): 2.5 µmol/L/min
- Fraction unbound ([6]; mouse, optimized (talinolol: possibly optimized)): 0.73
- Solubility ([7]; DrugBank, ref Wishart et al., 2017): 10000 µg/mL (≈ 23.6 mM)
- Lipophilicity ([7]; MSDS, ref Wishart et al., 2017): 0.59
- Lipophilicity ([7]; experimental pH=5, ref Serajuddin et al., 1991): 1.6
- Lipophilicity ([7]; experimental pH=7, ref Serajuddin et al., 1991): -0.23
- Lipophilicity ([7]; human, optimized, ref Lippert et al., 2012): 0.82
- pKa (Acid) ([7]; ref Wishart et al., 2017, Puttegowda et al., 2016): 4.2
